# Data taken from ChEMBL document CHEMBL1201862, “PubChem BioAssay data set” (2004).
# Several values for one entry are separate records, joined by “and”; a condition that tells them apart may be missing. Equal entries are not always repeated.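 Cells were grown in 96-well plates and exposed to each compound for 48 hours at five concentrations; endpoints were interpolated linearly between bracketing concentrations, or set to the highest concentration if not reached. At the GI50, growth is halved.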 Activity calls are given as the source filed them. No stated cut-off is given here; in the data, active = GI50 up to about 1.1 µM and inactive = higher.
# Assays:
# Assay in all cases: inhibition of tumour cell growth, NCI panel, 48 h
# UACC-257 = test system: UACC-257
# U-251 = test system: U-251
# MDA-MB-435 = test system: MDA-MB-435
# DU-145 = test system: DU-145
# EKVX = test system: EKVX
# UO-31 = test system: UO-31
# CAKI-1 = test system: CAKI-1
# OVCAR-3 = test system: OVCAR-3
# SW-620 = test system: SW-620
# LOX IMVI = test system: LOX IMVI
# COLO 205 = test system: COLO 205
# HT-29 = test system: HT-29
# HCT-116 = test system: HCT-116
# NCI-H522 = test system: NCI-H522
# RXF 393 = test system: RXF 393
# HCC 2998 = test system: HCC 2998
# SF-539 = test system: SF-539
# CCRF-CEM = test system: CCRF-CEM
# IGROV-1 = test system: IGROV-1
# SK-MEL-28 = test system: SK-MEL-28
# HOP-62 = test system: HOP-62
# OVCAR-8 = test system: OVCAR-8
# TK-10 = test system: TK-10
# 786-0 = test system: 786-0
# ACHN = test system: ACHN
# PC-3 = test system: PC-3
# NCI/ADR-RES = test system: NCI/ADR-RES
# Malme-3M = test system: Malme-3M
# SF-268 = test system: SF-268
# RPMI-8226 = test system: RPMI-8226
# MCF7 = test system: MCF7
# Hs-578T = test system: Hs-578T
# A549 = test system: A549
# NCI-H460 = test system: NCI-H460
# NCI-H23 = test system: NCI-H23
# SN12C = test system: SN12C
# K562 = test system: K562
# KM12 = test system: KM12
# SNB-75 = test system: SNB-75
# SNB-19 = test system: SNB-19
# NCI-H226 = test system: NCI-H226
# MDA-N = test system: MDA-N
# SR = test system: SR
# HCT-15 = test system: HCT-15
# MDA-MB-231 = test system: MDA-MB-231
# MOLT-4 = test system: MOLT-4
# SK-MEL-5 = test system: SK-MEL-5
# SF-295 = test system: SF-295
# OVCAR-5 = test system: OVCAR-5
# HL-60 = test system: HL-60
# M14 = test system: M14
# SK-OV-3 = test system: SK-OV-3
# UACC-62 = test system: UACC-62
# SK-MEL-2 = test system: SK-MEL-2
# A498 = test system: A498
# HOP-92 = test system: HOP-92
# T47D = test system: T47D
compound,measurement,setting,value
COc1ccc(N[S+]([O-])c2ccc(-c3ccccc3)cc2)cc1 (stereo not drawn),GI50,UACC-257,> 100 µM (inactive)
same,GI50,U-251,35.1 µM (inactive)
same,GI50,MDA-MB-435,> 100 µM (inactive)
same,GI50,DU-145,> 100 µM (inactive)
same,GI50,EKVX,> 100 µM (inactive)
same,GI50,UO-31,> 100 µM (inactive)
same,GI50,CAKI-1,> 100 µM (inactive)
same,GI50,OVCAR-3,> 100 µM (inactive)
same,GI50,SW-620,70.8 µM (inactive)
same,GI50,LOX IMVI,19.5 µM (inactive)
same,GI50,COLO 205,> 100 µM (inactive)
same,GI50,HT-29,> 100 µM (inactive)
same,GI50,HCT-116,> 100 µM (inactive)
same,GI50,NCI-H522,> 100 µM (inactive)
same,GI50,RXF 393,> 100 µM (inactive)
same,GI50,HCC 2998,> 100 µM (inactive)
same,GI50,SF-539,> 100 µM (inactive)
same,GI50,CCRF-CEM,> 100 µM (inactive)
same,GI50,IGROV-1,8.55 µM (inactive)
same,GI50,SK-MEL-28,91.4 µM (inactive)
same,GI50,HOP-62,52 µM (inactive)
same,GI50,OVCAR-8,29.5 µM (inactive)
same,GI50,TK-10,> 100 µM (inactive)
same,GI50,786-0,> 10 µM (inactive)
same,GI50,ACHN,> 100 µM (inactive)
same,GI50,PC-3,22.3 µM (inactive)
same,GI50,NCI/ADR-RES,55 µM (inactive)
same,GI50,Malme-3M,> 100 µM (inactive)
same,GI50,SF-268,30.9 µM (inactive)
same,GI50,RPMI-8226,> 100 µM (inactive)
same,GI50,MCF7,> 100 µM (inactive)
same,GI50,Hs-578T,0.667 µM (active)
same,GI50,A549,> 100 µM (inactive)
same,GI50,NCI-H460,> 100 µM (inactive)
same,GI50,NCI-H23,46 µM (inactive)
same,GI50,SN12C,> 100 µM (inactive)
same,GI50,K562,> 100 µM (inactive)
same,GI50,KM12,70.3 µM (inactive)
same,GI50,SNB-75,22.3 µM (inactive)
same,GI50,SNB-19,41.8 µM (inactive)
same,GI50,NCI-H226,> 100 µM (inactive)
same,GI50,MDA-N,97.7 µM (inactive)
same,GI50,SR,> 100 µM (inactive)
same,GI50,HCT-15,> 100 µM
same,GI50,MDA-MB-231,> 100 µM (inactive)
same,GI50,MOLT-4,> 100 µM (inactive)
same,GI50,SK-MEL-5,> 100 µM (inactive)
same,GI50,SF-295,> 100 µM (inactive)
same,GI50,OVCAR-5,> 100 µM (inactive)
same,GI50,HL-60,> 100 µM (inactive)
same,GI50,M14,86.1 µM (inactive)
CN1C/C(=C\c2ccccc2[N+](=O)[O-])C(=O)/C(=C/c2ccccc2[N+](=O)[O-])C1,GI50,U-251,1.19 µM (inactive)
same,GI50,DU-145,2.2 µM (inactive)
same,GI50,SK-OV-3,3.02 µM (inactive)
same,GI50,UO-31,0.303 µM (active)
same,GI50,SW-620,0.201 µM (active)
same,GI50,COLO 205,0.25 µM (active)
same,GI50,HCT-116,0.195 µM (active)
same,GI50,HCC 2998,1.01 µM (active)
same,GI50,IGROV-1,0.782 µM (active)
same,GI50,UACC-62,0.771 µM (active)
same,GI50,HOP-62,2.48 µM (inactive)
same,GI50,TK-10,1.17 µM (inactive)
same,GI50,786-0,0.277 µM (active)
same,GI50,PC-3,1.23 µM (inactive)
same,GI50,NCI/ADR-RES,1.03 µM (active)
same,GI50,SK-MEL-2,2.11 µM (inactive)
same,GI50,MCF7,0.348 µM (active)
same,GI50,A498,2.17 µM (inactive)
same,GI50,A549,3.55 µM (inactive)
same,GI50,NCI-H460,1.79 µM (inactive)
same,GI50,HOP-92,0.836 µM (active)
same,GI50,KM12,1.99 µM (inactive)
same,GI50,SNB-75,2.21 µM (inactive)
same,GI50,SNB-19,4.26 µM (inactive)
same,GI50,NCI-H226,5.05 µM (inactive)
same,GI50,HCT-15,0.262 µM
same,GI50,MOLT-4,0.238 µM (active)
same,GI50,SK-MEL-5,0.902 µM (active)
same,GI50,HL-60,0.112 µM (active)
Nc1nc(Cl)c(/N=N/c2ccc(Cl)cc2)c(NCC2(CO)CC(OCc3ccccc3)C2)n1 (stereo not drawn),GI50,UO-31,2.92 µM (inactive) and 2.08 µM (inactive)
same,GI50,CAKI-1,3.31 µM (inactive) and 1.82 µM (inactive)
same,GI50,ACHN,1.53 µM (inactive) and 1.73 µM (inactive)
same,GI50,Malme-3M,1.62 µM (inactive)
same,GI50,T47D,3.67 µM (inactive) and 3.15 µM (inactive)
same,GI50,K562,4.98 µM (inactive) and 3.03 µM (inactive)
same,GI50,SNB-75,6.71 µM (inactive)
same,GI50,HL-60,3.63 µM (inactive) and 3.48 µM (inactive)
